{
  "source": "patent US10828306B2",
  "about": "“Methotrexate for proliferative vitreoretinopathy” (Massachusetts Eye and Ear Infirmary, priority 2014, dated 2020)",
  "key": {"[1]": {"test_system": "patients with retinal detachment at high risk for proliferative vitreoretinopathy (PVR)", "experiment": "Pilot study of multiple intravitreal methotrexate injections after PPV in eyes at high risk for PVR", "assay_type": "in vivo, human", "set-up": "IOP at last follow up / Final IOP: unit not given here", "source_text": "We hypothesized that the administration of multiple, intravitreal methotrexate injections into eyes with high-risk features for post-operative proliferative vitreoretinopathy (PVR) development will have improved visual outcomes, higher anatomic final reattachment rates, decreased reoperation rates, and decreased occurrence of PVR at 4 months postoperatively.\nWe have performed a small pilot study in 10 patients with retinal detachment whom had high-risk clinical factors for developing PVR.\nPatients 18 years to 89 years old of both genders were eligible for this study if they required pars plana vitrectomy (PPV) for rhegmatagenous retinal detachment secondary to trauma, PPV for preexisting proliferative vitreoretinopathy grade C or higher, or if they had retinal detachments requiring PPV for other indications associated with high risk condition for PVR development, i.e.: giant retinal tears (Giant retinal tears are defined as tears involving 90° or more of the circumference of the globe), retinal breaks larger than 3 disc areas, long-standing retinal detachments, detachments associated with hemorrhage.\nThe PPV was performed under local or general anesthesia using three, 23 or 20 gauge sclerotomy ports. Any present epiretinal membranes were dissected using a membrane pick and/or forceps. Intraoperative tissue staining, perfluorocarbons, cryopexy, endolaser, scleral buckling, and lensectomy were performed as needed. Either silicone oil or gas was used as the tamponading agent.\nRoutine post-operative visits, which involve a dilated funduscopic examination, occurred on post-operative day 1, 7, month 1, month 2, and month 3.\nIn addition to receiving the above-described standard of care, patients received multiple intravitreal methotrexate injections during their post-operative period. The first injection was administered intraoperatively and subsequently was injected on post-op week 1,2,3,4,5,6,7,8 and on post-op month 3, for a total of 10 injections. Intravitreal methotrexate injections were performed aseptically after the topical application of anaesthesia and 5% povidone iodine to the conjunctival sac. Each patient received an intravitreal injection of 400 mcg/0.1 ml methotrexate, 3.0 to 3.5 mm posterior to the limbus, depending on lens status, with a 30-gauge needle.\nAfter injection, patients were monitored for adverse events, including a full-dilated funduscopic examination."}, "[2]": {"test_system": "human proliferative vitreoretinopathy (PVR) cells", "experiment": "Growth of human PVR cells in culture", "assay_type": "cell-based", "conditions": "for Growth of PVR cells versus control: methotrexate 400, 200, 100 (micrograms, μM), 30,000 cells per well", "description": "The cells were treated with 100 μM, 200 μM, or 400 μM Methotrexate (MTX) as indicated, and the images were taken after 72 hours (2A), 1 week (2B) or 2 weeks (2C).\nWe hypothesized that methotrexate would inhibit human proliferative vitreoretinopathy (PVR) cells in culture. PVR membranectomy was performed in patients undergoing retinal detachment repair secondary to PVR. Using cellular separation techniques, cellular constituents of the PVR membranes were separated from the extracellular matrix membranes. 30,000 cells per well were placed into a standard 12 welled plate. All 12 wells received endothelial cell growth medium with supplemental growth factors. Four arms were designated consisting of three wells each. The first arm served as a control receiving the standard growth medium but no other intervention. The remaining wells were designated as treatment arms. The second arm of three wells served as the first treatment arm and exposed the cells to 400 micrograms of methotrexate. The third and fourth arms of three wells each exposed the cultured cells to 200 and 100 micrograms, respectively, of methotrexate."}, "[3]": {"test_system": "patients, eyes with a wide variety of conditions including PVR", "conditions": "intravitreal, varying doses, cited from earlier work"}, "[4]": {"conditions": "one patient (studyid), follow up 4 to 39 months"}, "[5]": {"conditions": "one patient (studyid), intravitreal methotrexate 400 mcg/0.1 ml"}},
  "note": "Values joined by “and” are separate entries in the source; they are usually repeats but may differ in a detail not shown here. Identical values can stand only once. “Also recorded” adds a separate entry of the source.",
  "data": [
    {"smiles": "CN(Cc1cnc2nc(N)nc(N)c2n1)c1ccc(C(=O)N[C@@H](CCC(=O)O)C(=O)O)cc1", "note": "[methotrexate, N-[4-[[(2,4-diamino-6-pteridinyl)methyl]methylamino]benzoyl]-L-glutamic acid]", "values": [
      {"measurement": "Other subjects with reaccumulation of fluid under the retina requiring re-operation, no membranes", "setting": "[1]; 10 patients", "result": "Two"},
      {"measurement": "Development of PVR while receiving methotrexate", "setting": "[1]; 10 patients, three-month treatment protocol", "result": "no subjects developed PVR"},
      {"measurement": "Subjects with a degree of conjunctival hyperemia", "setting": "[1]; 10 patients, consistent with the use of silicone oil", "result": "All subjects"},
      {"measurement": "Median post-operative visual acuity", "setting": "[1]; 10 patients, median pre-operative visual acuity Hand Motions at 2 feet", "result": "20/200"},
      {"measurement": "Visual acuity and intraocular pressure at last follow up visit compared with post-operative month 4", "setting": "[1]; all patients", "result": "similar"},
      {"measurement": "Significant adverse events", "setting": "[1]; follow up 4 to 39 months, median 25 months", "result": "no significant adverse events were observed"},
      {"measurement": "Adverse events observed: Conjunctival hyperemia", "setting": "[1]; one patient (studyid)", "result": "4 (2×) and 7 (3×) and 5 (3×) and 6 (2×)"},
      {"measurement": "Adverse events observed: Elevated intraocular pressure", "setting": "[1]; one patient (studyid)", "result": "0 (9×) and 1"},
      {"measurement": "Adverse events observed: NLP", "setting": "[1]; one patient (studyid)", "result": "0 (9×) and 1"},
      {"measurement": "Adverse events observed: Superficial Punctate Keratopathy", "setting": "[1]; one patient (studyid)", "result": "0 (9×) and 1"},
      {"measurement": "Reoperations required", "setting": "[1]; one patient (studyid)", "result": "1 (2×) and 0 (8×)"},
      {"measurement": "IOP at last follow up", "setting": "[1]; [4]", "result": "16 (2×) and 9 (3×) and 22 and 14 (2×) and 12 and 15"},
      {"measurement": "Visual acuity at last follow up", "setting": "[1]; [4]", "result": "20/300 and 20/200 and NLP and 20/70 and 20/150 and 20/500"},
      {"measurement": "Detachments: Number of detachments due to PVR during study period", "setting": "[1]; [5]", "result": "0 (9×) and 0*"},
      {"measurement": "Final IOP", "setting": "[1]; [5]", "result": "12 (3×) and 9 (2×) and 10 and 8 and 15 and 13 (2×)"},
      {"measurement": "Visual Acuity, Post-op month 4", "setting": "[1]; one patient (studyid), intravitreal methotrexate 400 mcg/0.1 ml, up to 10 injections over 3 months", "result": "20/200 (4×) and 20/160 and 20/252 and NLP and 20/65 and 20/320"},
      {"measurement": "Elevated intraocular pressure by Goldmann Tonometry", "setting": "[1]; one patient, single examination, attributed to excessive steroid use", "result": 44, "unit": "mm Hg"},
      {"measurement": "Patients with superficial punctuate keratopathy (SPK)", "setting": "[1]; single clinical exam, normal corneal surface one week later", "result": "one"},
      {"measurement": "PVR after completion of the injection protocol", "setting": "[1]; trauma patient #4, at 3½ months postoperatively", "result": "massive PVR two weeks after completion of the injection protocol"},
      {"measurement": "Proliferation of human PVR cells in culture", "setting": "[2]; 100 μM, 200 μM, or 400 μM", "result": "inhibited proliferation"},
      {"measurement": "Growth of PVR cells versus control", "setting": "[2]; 1 week", "result": "growth inhibition and lack of confluency"},
      {"measurement": "Growth of PVR cells versus control", "setting": "[2]; 2 weeks", "result": "inhibited growth and lack of confluency; also recorded: inhibition of cellular confluency continued"},
      {"measurement": "Change in visual acuity for the group", "setting": "[3]; 5 patients", "result": "no change in visual acuity"},
      {"measurement": "Number of patients with any improved vision", "setting": "[3]; of 5 patients", "result": "one"}
    ]}
  ]
}
